According to PMC9525653, “Mutations conferring SO4^2− pumping ability on the cyanobacterial anion pump rhodopsin and the resultant unique features of the mutant” (Scientific Reports, 2022):

How the values were obtained:
MrHR [1] = target: MrHR (Mastigocladopsis repens, UniProt A0A6P3CW41, E182T); assay: biochemical
MrHR [2] = target: MrHR (Mastigocladopsis repens, UniProt A0A6P3CW41); assay: biochemical
Sequence of MrHR (Mastigocladopsis repens, UniProt A0A6P3CW41) (A0A6P3CW41 1-232): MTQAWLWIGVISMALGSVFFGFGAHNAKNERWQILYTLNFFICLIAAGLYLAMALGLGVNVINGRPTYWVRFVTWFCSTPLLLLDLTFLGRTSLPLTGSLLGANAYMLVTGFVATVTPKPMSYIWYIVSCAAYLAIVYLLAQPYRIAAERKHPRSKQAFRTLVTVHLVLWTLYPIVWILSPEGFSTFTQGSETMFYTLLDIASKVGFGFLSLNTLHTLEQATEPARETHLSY

Sequence of MrHR (Mastigocladopsis repens, UniProt A0A6P3CW41, E182T) (A0A6P3CW41 1-232 E182T): as the sequence (A0A6P3CW41 1-232) above, with E182T counted along it

## Cl [Cl^−]
MrHR [1]
  Kd: 1.18 mM
MrHR [2]
  Kd: 4.98 mM
